Patent US12516237B2, “Alkyl lactone-derived corrosion inhibitors” (ChampionX LLC, priority 2018, dated 2026)

Test: Bubble cell test: corrosion rate of steel electrode by aqueous linear polarization resistance (LPR) in CO2-saturated synthetic oilfield brine/oil
Settings: 15 h after dosing, 80° C., 80% water cut, CO2 purge, C1018, samples 10 ppm of 20% active + 2% 2ME; for % Protection (corrosion inhibition): relative to baseline corrosion rate before dosing, comparatives 20 ppm of 10% active + 1% 2ME; for Inhibited Corrosion Rate: comparatives 20 ppm of 10% active + 1% 2ME (same active concentration)
Description: The bubble cell test was used to investigate the effectiveness of alkyl lactone-derived hydroxyamides as corrosion inhibitors. This test measures the corrosion rate of a steel electrode by aqueous linear polarization resistance (LPR). The steel electrodes (C1018) were placed in a bath of synthetic oilfield brine which was deaerated with carbon dioxide. The corrosion rate of the electrode was compared in the absence or presence of an alkyl lactone-derived hydroxyamide.
The synthetic oilfield brine contained about 3 wt % of sodium chloride, and the oil included a synthetic oil of INT-200 and xylene. The ratio of water to oil was 80:20. The oil/brine was placed into bubble cells and purged with CO2. The oil/brine was continually purged with CO2 to saturate the oil/brine prior to starting the test. The test cells were blanketed with CO2 throughout the duration of the test to maintain saturation. The bubble cells were stirred at 100 revolutions per minute (rpm) for the duration of the test to maintain thermal equilibrium at 80° C. The electrodes were all cleaned and polished prior to testing.
After about 3 hours of pre-corrosion time (i.e. without a corrosion inhibitor) 10 ppm of a 20% active of an alkyl-lactone chemistry (shown in Table 2 and prepared as described in Example 1) with 2% 2-mercaptoethanol (2ME) solvent was added. Comparison with a benzyl ammonium chloride quarternary chemistry and imidazoline chemistry was made at the same active concentration as the alkyl lactone together with 2ME (at the same dose based on chemistry and 2ME activity—i.e. these were dosed at twice the concentration because the active and 2ME in the test blend was half).

Row | Compound | % Protection (corrosion inhibition) [%] | Inhibited Corrosion Rate [mpy]
1 | CCCCCCCC(O)CCC(=O)NCCCN(C)C (stereo not drawn) [Sample 1, γ-Undecalactone/DMAPA] | 37 | 181
2 | CCCCCCC(O)CCCC(=O)NCCCN(C)C (stereo not drawn) [Sample 2, δ-Undecalactone/DMAPA] | 43 | 151
3 | CCCCC(O)CCC(=O)NCCCN(C)C (stereo not drawn) [Sample 3, γ-Octalactone/DMAPA] | 31 | 177
